According to patent publication US20260022142A1, “MACROCYCLIC IMMUNOMODULATORS” (Bristol-Myers Squibb Company, priority 2022, published 2026):
pIC50: −log10 of the molar value. Bridge positions count the residues as written; N and C are the ends. Square brackets hold non-standard residues; d marks the D form. Peptide text beside a SMILES is read from it. * marks the point of attachment. Phe(4-COOH) = N[C@@H](Cc1ccc(C(=O)O)cc1)C(=O)O; Bip = N[C@@H](Cc1ccc(-c2ccccc2)cc1)C(=O)O; Phe(3-Me) = Cc1cccc(C[C@H](N)C(=O)O)c1; Cha = N[C@@H](CC1CCCCC1)C(=O)O; Carboxymethyl = O=C(O)C*; Orn = NCCC[C@H](N)C(=O)O; Aun = NCCCCCCCCCCC(=O)O; Dab = NCC[C@H](N)C(=O)O; Dap = NC[C@H](N)C(=O)O; AEEA = NCCOCCOCC(=O)O

Molecular target: T1, PD-1/PD-L1 interaction (PE-labeled human PD-L1-Ig binding to Jurkat cell line over-expressing human PD-1) (Homo sapiens, UniProt Q15116)
T1 construct: expressed in transfected cells; host or cells: Jurkat
T1 sequence (Q15116 25-288): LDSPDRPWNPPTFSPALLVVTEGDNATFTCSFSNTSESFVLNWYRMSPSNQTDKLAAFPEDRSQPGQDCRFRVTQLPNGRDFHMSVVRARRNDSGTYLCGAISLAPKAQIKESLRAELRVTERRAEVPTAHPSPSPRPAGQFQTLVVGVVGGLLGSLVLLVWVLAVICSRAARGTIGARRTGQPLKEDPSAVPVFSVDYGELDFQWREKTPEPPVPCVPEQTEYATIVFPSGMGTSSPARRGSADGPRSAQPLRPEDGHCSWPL
Experiment: Jurkat-PD-1 Cell Binding High-Content Screening Assay (CBA)
Assay type: cell-based
Settings: Jurkat cell line over-expressing human PD-1; PE-labeled PD-L1-Ig 20 nM final; read-out: Jurkat hPD1-PDL1 IC50
In short: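 Read-out is high-content imaging of cell-bound phycoerythrin-tagged PD-L1-Ig on fixed, Hoechst-counterstained Jurkat cells that over-express human PD-1. Compound exposure lasts 2 h at 37° C before the labeled ligand (20 nM final) is added for a further hour.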

SMILES	pIC50
CC(C)C[C@H]1NC(=O)[C@H](CCCN)NC(=O)[C@H](C(C)C)NC(=O)[C@H](Cc2ccc(-c3ccccc3)cc2)NC(=O)[C@H](C(C)C)NC(=O)[C@H](Cc2c[nH]c3ccccc23)NC(=O)[C@H](CC(=O)O)NC(=O)[C@H](Cc2ccc(OCC(=O)O)cc2)NC(=O)[C@H](Cc2ccc(OCC(=O)O)cc2)NC(=O)CSC[C@@H](C(=O)N[C@@H](CCCCN)C(=O)NCCOCCOCC(=O)NCCCCCCCCCCC(=O)O)NC(=O)[C@H](CCCN)NC(=O)[C@H](C(C)C)NC(=O)[C@H](CC2CCCCC2)NC(=O)[C@H](CCN)NC1=O [Compound 2529] ({CH2CO}-Y(Carboxymethyl)Y(Carboxymethyl)DWV[Bip]V[Orn][dL][Dab][Cha]V[Orn]CK[AEEA][Aun]-OH; thioether N-14)	7.90
CC(C)C[C@H]1NC(=O)[C@H](CCCN)NC(=O)[C@H](C(C)C)NC(=O)[C@H](Cc2ccc(-c3ccccc3)cc2)NC(=O)[C@H](C(C)C)NC(=O)[C@H](Cc2c[nH]c3ccccc23)NC(=O)[C@H](CC(=O)O)NC(=O)[C@H](Cc2ccc(OCC(=O)O)cc2)NC(=O)[C@H](Cc2ccc(OCC(=O)O)cc2)NC(=O)CSC[C@@H](C(=O)N[C@@H](CCCCN)C(=O)NCCOCCOCC(=O)NCCCCCCCCCCC(=O)O)NC(=O)[C@H](CN)NC(=O)[C@H](C(C)C)NC(=O)[C@H](CC2CCCCC2)NC(=O)[C@H](CCN)NC1=O [Compound 2530] ({CH2CO}-Y(Carboxymethyl)Y(Carboxymethyl)DWV[Bip]V[Orn][dL][Dab][Cha]V[Dap]CK[AEEA][Aun]-OH; thioether N-14)	7.96
CC(C)C[C@H]1NC(=O)[C@H](CCCN)NC(=O)[C@H](C(C)C)NC(=O)[C@H](Cc2ccc(-c3ccccc3)cc2)NC(=O)[C@H](C(C)C)NC(=O)[C@H](Cc2c[nH]c3ccccc23)NC(=O)[C@H](CC(=O)O)NC(=O)[C@H](Cc2ccc(C(=O)O)cc2)NC(=O)[C@H](Cc2ccc(OCC(=O)O)cc2)NC(=O)CSC[C@@H](C(=O)N[C@@H](CCCCN)C(=O)NCCCCCCCCCCC(=O)O)NC(=O)[C@H](CCCCN)NC(=O)[C@H](C(C)C)NC(=O)[C@H](CC2CCCCC2)NC(=O)[C@H](CCN)NC1=O [Compound 2531] ({CH2CO}-Y(Carboxymethyl)[Phe(4-COOH)]DWV[Bip]V[Orn][dL][Dab][Cha]VKCK[Aun]-OH; thioether N-14)	7.65
CC(C)C[C@H]1NC(=O)[C@H](CCCN)NC(=O)[C@H](C(C)C)NC(=O)[C@H](Cc2ccc(-c3ccccc3)cc2)NC(=O)[C@H](C(C)C)NC(=O)[C@H](Cc2c[nH]c3ccccc23)NC(=O)[C@H](CC(=O)O)NC(=O)[C@H](Cc2ccc(OCC(=O)O)cc2)NC(=O)[C@H](Cc2ccc(OCC(=O)O)cc2)NC(=O)CSC[C@@H](C(=O)N[C@@H](CCCCN)C(=O)NCCCCCCCCCCC(=O)O)NC(=O)[C@H](CCCNC(=N)N)NC(=O)[C@H](C(C)C)NC(=O)[C@H](CC2CCCCC2)NC(=O)[C@H](CCN)NC1=O [Compound 2532] ({CH2CO}-Y(Carboxymethyl)Y(Carboxymethyl)DWV[Bip]V[Orn][dL][Dab][Cha]VRCK[Aun]-OH; thioether N-14)	7.46
CC(C)C[C@H]1NC(=O)[C@H](CCCN)NC(=O)[C@H](C(C)C)NC(=O)[C@H](Cc2ccc(-c3ccccc3)cc2)NC(=O)[C@H](C(C)C)NC(=O)[C@H](Cc2c[nH]c3ccccc23)NC(=O)[C@H](CC(=O)O)NC(=O)[C@H](Cc2ccc(OCC(=O)O)cc2)NC(=O)[C@H](CN)NC(=O)CSC[C@@H](C(=O)N[C@@H](CCCCN)C(=O)NCCCCCCCCCCC(=O)O)NC(=O)[C@H](CCCCN)NC(=O)[C@H](C(C)C)NC(=O)[C@H](CC2CCCCC2)NC(=O)[C@H](CCN)NC1=O [Compound 2533] ({CH2CO}-[Dap]Y(Carboxymethyl)DWV[Bip]V[Orn][dL][Dab][Cha]VKCK[Aun]-OH; thioether N-14)	7.62
Cc1cccc(C[C@@H]2NC(=O)[C@H](CC(=O)O)NC(=O)[C@H](Cc3ccc(OCC(=O)O)cc3)NC(=O)[C@H](CN)NC(=O)CSC[C@@H](C(=O)N[C@@H](CCCCN)C(=O)NCCCCCCCCCCC(=O)O)NC(=O)[C@H](CN)NC(=O)[C@H](C(C)C)NC(=O)[C@H](CC3CCCCC3)NC(=O)[C@H](CCN)NC(=O)[C@@H](CC(C)C)NC(=O)[C@H](CCCN)NC(=O)[C@H](C(C)C)NC(=O)[C@H](Cc3ccc(-c4ccccc4)cc3)NC(=O)[C@H](C(C)C)NC2=O)c1 [Compound 2534] ({CH2CO}-[Dap]Y(Carboxymethyl)D[Phe(3-Me)]V[Bip]V[Orn][dL][Dab][Cha]V[Dap]CK[Aun]-OH; thioether N-14)	8.20
Cc1cccc(C[C@@H]2NC(=O)[C@H](CC(=O)O)NC(=O)[C@H](Cc3ccc(OCC(=O)O)cc3)NC(=O)[C@H](CN)NC(=O)CSC[C@@H](C(=O)N[C@@H](CCCCN)C(=O)NCCCCCCCCCCC(=O)O)NC(=O)[C@H](CCCN)NC(=O)[C@H](C(C)C)NC(=O)[C@H](CC3CCCCC3)NC(=O)[C@H](CCN)NC(=O)[C@@H](CC(C)C)NC(=O)[C@H](CCCN)NC(=O)[C@H](C(C)C)NC(=O)[C@H](Cc3ccc(-c4ccccc4)cc3)NC(=O)[C@H](C(C)C)NC2=O)c1 [Compound 2535] ({CH2CO}-[Dap]Y(Carboxymethyl)D[Phe(3-Me)]V[Bip]V[Orn][dL][Dab][Cha]V[Orn]CK[Aun]-OH; thioether N-14)	8.19
Cc1cccc(C[C@@H]2NC(=O)[C@H](CC(=O)O)NC(=O)[C@H](Cc3ccc(OCC(=O)O)cc3)NC(=O)[C@H](CN)NC(=O)CSC[C@@H](C(=O)N[C@@H](CCCCN)C(=O)NCCCCCCCCCCC(=O)O)NC(=O)[C@H](CCCNC(=N)N)NC(=O)[C@H](C(C)C)NC(=O)[C@H](CC3CCCCC3)NC(=O)[C@H](CCN)NC(=O)[C@@H](CC(C)C)NC(=O)[C@H](CCCN)NC(=O)[C@H](C(C)C)NC(=O)[C@H](Cc3ccc(-c4ccccc4)cc3)NC(=O)[C@H](C(C)C)NC2=O)c1 [Compound 2536] ({CH2CO}-[Dap]Y(Carboxymethyl)D[Phe(3-Me)]V[Bip]V[Orn][dL][Dab][Cha]VRCK[Aun]-OH; thioether N-14)	8.02
CC(C)C[C@H]1NC(=O)[C@H](CCCN)NC(=O)[C@H](C(C)C)NC(=O)[C@H](Cc2ccc(-c3ccccc3)cc2)NC(=O)[C@H](C(C)C)NC(=O)[C@H](Cc2c[nH]c3ccccc23)NC(=O)[C@H](CC(=O)O)NC(=O)[C@H](Cc2ccc(OCC(=O)O)cc2)NC(=O)[C@H](Cc2ccc(OCC(=O)O)cc2)NC(=O)CSC[C@@H](C(=O)N[C@@H](CCCCN)C(=O)NCCCCCCCCCCC(=O)O)NC(=O)[C@H](CCCN)NC(=O)[C@H](C(C)C)NC(=O)[C@H](CC2CCCCC2)NC(=O)[C@H](CCN)NC1=O [Compound 2537] ({CH2CO}-Y(Carboxymethyl)Y(Carboxymethyl)DWV[Bip]V[Orn][dL][Dab][Cha]V[Orn]CK[Aun]-OH; thioether N-14)	7.72
CC(C)C[C@H]1NC(=O)[C@H](CCCN)NC(=O)[C@H](C(C)C)NC(=O)[C@H](Cc2ccc(-c3ccccc3)cc2)NC(=O)[C@H](C(C)C)NC(=O)[C@H](Cc2c[nH]c3ccccc23)NC(=O)[C@H](CC(=O)O)NC(=O)[C@H](Cc2ccc(OCC(=O)O)cc2)NC(=O)[C@H](Cc2ccc(OCC(=O)O)cc2)NC(=O)CSC[C@@H](C(=O)N[C@@H](CCCCN)C(=O)NCCCCCCCCCCC(=O)O)NC(=O)[C@H](CN)NC(=O)[C@H](C(C)C)NC(=O)[C@H](CC2CCCCC2)NC(=O)[C@H](CCN)NC1=O [Compound 2538] ({CH2CO}-Y(Carboxymethyl)Y(Carboxymethyl)DWV[Bip]V[Orn][dL][Dab][Cha]V[Dap]CK[Aun]-OH; thioether N-14)	7.87
CC(C)C[C@H]1NC(=O)[C@H](CCCN)NC(=O)[C@H](C(C)C)NC(=O)[C@H](Cc2ccc(-c3ccccc3)cc2)NC(=O)[C@H](C(C)C)NC(=O)[C@H](Cc2c[nH]c3ccccc23)NC(=O)[C@H](CC(=O)O)NC(=O)[C@H](Cc2ccc(C(=O)O)cc2)NC(=O)[C@H](Cc2ccc(OCC(=O)O)cc2)NC(=O)CSC[C@@H](C(=O)NCCOCCOCC(=O)N[C@@H](CCN)C(=O)NCCCCCCCCCCC(=O)O)NC(=O)[C@H](CCCCN)NC(=O)[C@H](C(C)C)NC(=O)[C@H](CC2CCCCC2)NC(=O)[C@H](CCN)NC1=O [Compound 2539] ({CH2CO}-Y(Carboxymethyl)[Phe(4-COOH)]DWV[Bip]V[Orn][dL][Dab][Cha]VKC[AEEA][Dab][Aun]-OH; thioether N-14)	8.28
CC(C)C[C@H]1NC(=O)[C@H](CCCN)NC(=O)[C@H](C(C)C)NC(=O)[C@H](Cc2ccc(-c3ccccc3)cc2)NC(=O)[C@H](C(C)C)NC(=O)[C@H](Cc2c[nH]c3ccccc23)NC(=O)[C@H](CC(=O)O)NC(=O)[C@H](Cc2ccc(OCC(=O)O)cc2)NC(=O)[C@H](Cc2ccc(OCC(=O)O)cc2)NC(=O)CSC[C@@H](C(=O)NCCOCCOCC(=O)N[C@@H](CCN)C(=O)NCCCCCCCCCCC(=O)O)NC(=O)[C@H](CCCNC(=N)N)NC(=O)[C@H](C(C)C)NC(=O)[C@H](CC2CCCCC2)NC(=O)[C@H](CCN)NC1=O [Compound 2540] ({CH2CO}-Y(Carboxymethyl)Y(Carboxymethyl)DWV[Bip]V[Orn][dL][Dab][Cha]VRC[AEEA][Dab][Aun]-OH; thioether N-14)	8.15
CC(C)C[C@H]1NC(=O)[C@H](CCCN)NC(=O)[C@H](C(C)C)NC(=O)[C@H](Cc2ccc(-c3ccccc3)cc2)NC(=O)[C@H](C(C)C)NC(=O)[C@H](Cc2c[nH]c3ccccc23)NC(=O)[C@H](CC(=O)O)NC(=O)[C@H](Cc2ccc(OCC(=O)O)cc2)NC(=O)[C@H](CN)NC(=O)CSC[C@@H](C(=O)NCCOCCOCC(=O)N[C@@H](CCN)C(=O)NCCCCCCCCCCC(=O)O)NC(=O)[C@H](CCCCN)NC(=O)[C@H](C(C)C)NC(=O)[C@H](CC2CCCCC2)NC(=O)[C@H](CCN)NC1=O [Compound 2541] ({CH2CO}-[Dap]Y(Carboxymethyl)DWV[Bip]V[Orn][dL][Dab][Cha]VKC[AEEA][Dab][Aun]-OH; thioether N-14)	8.12
